{"source": "patent US6924300B2", "about": "“Oxyiminoalkanoic acid derivatives” (Takeda Chemical Industries, Ltd., priority 1998, dated 2005)", "data": [{"smiles": "Cc1sc(-c2ccccc2)nc1COc1ccc(CO/N=C(\\CCC(=O)O)c2ccccc2)cc1", "note": "[Example 91, E-4-[4-(5-methyl-2-phenyl-4-thiazolylmethoxy)benzyloxyimino]-4-phenylbutyric acid]", "values": [{"measurement": "melting point", "result": "99 to 100", "unit": "°C"}]}, {"smiles": "Cc1oc(-c2ccco2)nc1COc1ccc(CO/N=C(\\CCC(=O)O)c2ccccc2)cc1", "note": "[Example 94, E-4-[4-[2-(2-furyl)-5-methyl-4-oxazolylmethoxy]benzyloxyimino]-4-phenylbutyric acid]", "values": [{"measurement": "melting point", "result": "124 to 125", "unit": "°C"}]}, {"smiles": "Cc1oc(-c2cccs2)nc1COc1ccc(CO/N=C(\\CCC(=O)O)c2ccccc2)cc1", "note": "[Example 97, E-4-[4-[5-methyl-2-(2-thienyl)-4-oxazolylmethoxy]benzyloxyimino]-4-phenylbutyric acid]", "values": [{"measurement": "melting point", "result": "142 to 143", "unit": "°C"}]}, {"smiles": "O=C(O)CC/C(=N\\OCc1ccc(OCc2ccccc2)cc1)c1ccccc1", "note": "[Example 98, E-4-(4-benzyloxybenzyloxyimino)-4-phenylbutyric acid]", "values": [{"measurement": "melting point", "result": "86 to 87", "unit": "°C"}]}, {"smiles": "O=C(O)CC/C(=N\\OCc1ccc(OCc2cn3ccccc3n2)cc1)c1ccccc1", "note": "[Example 101, E-4-[4-(imidazo[1,2-a]pyridin-2-ylmethoxy)benzyloxyimino]-4-phenylbutyric acid]", "values": [{"measurement": "melting point", "result": "180 to 182", "unit": "°C"}]}, {"smiles": "O=C(O)CC/C(=N\\OCc1ccc(OCc2coc(-c3ccccc3)n2)cc1)c1ccccc1", "note": "[Example 102, E-4-phenyl-4-[4-(2-phenyl-4-oxazolylmethoxy)benzyloxyimino]butyric acid]", "values": [{"measurement": "melting point", "result": "144 to 145", "unit": "°C"}]}, {"smiles": "O=C(O)CC/C(=N\\OCc1ccc(OCc2ccc3ccccc3n2)cc1)c1ccccc1", "note": "[Example 104, E-4-phenyl-4-[4-(2-quinolinylmethoxy)benzyloxyimino]butyric acid]", "values": [{"measurement": "melting point", "result": "133 to 134", "unit": "°C"}]}, {"smiles": "O=C(O)CC/C(=N\\OCc1ccc(OCc2csc(-c3ccccc3)n2)cc1)c1ccccc1", "note": "[Example 108, E-4-phenyl-4-[4-(2-phenyl-4-thiazolylmethoxy)benzyloxyimino]butyric acid]", "values": [{"measurement": "melting point", "result": "104 to 105", "unit": "°C"}]}, {"smiles": "Cc1oc(-c2ccccc2)nc1COc1ccc(CO/N=C(/c2ccccc2)C(C)(C)C(=O)O)cc1", "note": "[Example 110, Z-2,2-dimethyl-3-[4-(5-methyl-2-phenyl-4-oxazolylmethoxy)benzyloxyimino]-3-phenylpropionic acid]", "values": [{"measurement": "melting point", "result": "142 to 143 °C (dec.)"}]}, {"smiles": "Cc1oc(-c2ccccc2)nc1COc1ccc(CO/N=C(\\CC(N)=O)c2ccccc2)cc1", "note": "[Example 111, E-3-[4-(5-methyl-2-phenyl-4-oxazolylmethoxy)benzyloxyimino]-3-phenylpropanamide]", "values": [{"measurement": "melting point", "result": "164 to 165", "unit": "°C"}]}, {"smiles": "Cc1oc(-c2ccccc2)nc1COc1ccc(CO/N=C(\\CCCCCC(=O)O)c2ccccc2)cc1", "note": "[Example 115, E-7-[4-(5-methyl-2-phenyl-4-oxazolylmethoxy)benzyloxyimino]-7-phenylheptanoic acid]", "values": [{"measurement": "melting point", "result": "84 to 85", "unit": "°C"}]}, {"smiles": "COc1ccc(/C(CCCCCCC(=O)O)=N/OCc2ccc(OCc3nc(-c4ccccc4)oc3C)cc2)cc1", "note": "[Example 118, E-8-(4-methoxyphenyl)-8-[4-(5-methyl-2-phenyl-4-oxazolylmethoxy)benzyloxyimino]octanoic acid]", "values": [{"measurement": "melting point", "result": "69 to 70", "unit": "°C"}]}, {"smiles": "Cc1oc(-c2ccccc2)nc1COc1ccc(CO/N=C(\\CCCCCCC(=O)O)c2ccc(Cl)cc2)cc1", "note": "[Example 123, E-8-(4-chlorophenyl)-8-[4-(5-methyl-2-phenyl-4-oxazolylmethoxy)benzyloxyimino]octanoic acid]", "values": [{"measurement": "melting point", "result": "90 to 91", "unit": "°C"}]}, {"smiles": "Cc1oc(-c2ccccc2)nc1COc1ccc(CO/N=C(/CCCCCCC(=O)O)c2ccc(Cl)cc2)cc1", "note": "[Example 124, Z-8-(4-chlorophenyl)-8-[4-(5-methyl-2-phenyl-4-oxazolylmethoxy)benzyloxyimino]octanoic acid]", "values": [{"measurement": "melting point", "result": "54 to 57", "unit": "°C"}]}, {"smiles": "Cc1oc(-c2ccccc2)nc1COc1ccc(CO/N=C(\\CCCCCCC(=O)O)c2ccc(F)cc2)cc1", "note": "[Example 125, E-8-(4-fluorophenyl)-8-[4-(5-methyl-2-phenyl-4-oxazolylmethoxy)benzyloxyimino]octanoic acid]", "values": [{"measurement": "melting point", "result": "79 to 80", "unit": "°C"}]}, {"smiles": "Cc1oc(-c2ccccc2)nc1COc1ccc(CO/N=C(/CCCCCCC(=O)O)c2ccc(F)cc2)cc1", "note": "[Example 126, Z-8-(4-fluorophenyl)-8-[4-(5-methyl-2-phenyl-4-oxazolylmethoxy)benzyloxyimino]octanoic acid]", "values": [{"measurement": "melting point", "result": "56 to 57", "unit": "°C"}]}, {"smiles": "O=C(O)CCCCCC/C(=N\\OCc1ccc(OCc2noc(-c3ccccc3)n2)cc1)c1ccccc1", "note": "[Example 128, E-8-phenyl-8-[4-(5-phenyl-1,2,4-oxadiazol-3-ylmethoxy)benzyloxyimino]octanoic acid]", "values": [{"measurement": "melting point", "result": "76 to 77", "unit": "°C"}]}, {"smiles": "Cc1oc(-c2ccco2)nc1COc1ccc(CO/N=C(\\CCCCCCC(=O)O)c2ccccc2)cc1", "note": "[Example 129, E-8-[4-[2-(2-furyl)-5-methyl-4-oxazolylmethoxy]benzyloxyimino]-8-phenyloctanoic acid]", "values": [{"measurement": "melting point", "result": "75 to 77", "unit": "°C"}]}, {"smiles": "Cc1oc(-c2cccs2)nc1COc1ccc(CO/N=C(\\CCCCCCC(=O)O)c2ccccc2)cc1", "note": "[Example 130, E-8-[4-[5-methyl-2-(2-thienyl)-4-oxazolylmethoxy]benzyloxyimino]-8-phenyloctanoic acid]", "values": [{"measurement": "melting point", "result": "106 to 108", "unit": "°C"}]}, {"smiles": "Cc1oc(-c2ccco2)nc1COc1ccc(CO/N=C(\\CCCCC(=O)O)c2ccccc2)cc1", "note": "[Example 132, E-6-[4-[2-(2-furyl)-5-methyl-4-oxazolylmethoxy]benzyloxyimino]-6-phenylhexanoic acid]", "values": [{"measurement": "melting point", "result": "112 to 113", "unit": "°C"}]}, {"smiles": "Cc1oc(-c2cccs2)nc1COc1ccc(CO/N=C(\\CCCCC(=O)O)c2ccccc2)cc1", "note": "[Example 135, E-6-[4-[5-methyl-2-(2-thienyl)-4-oxazolylmethoxy]benzyloxyimino]-6-phenylhexanoic acid]", "values": [{"measurement": "melting point", "result": "101 to 102", "unit": "°C"}]}, {"smiles": "O=C(O)CCCC/C(=N\\OCc1ccc(OCc2noc(-c3ccccc3)n2)cc1)c1ccccc1", "note": "[Example 136, E-6-phenyl-6-[4-(5-phenyl-1,2,4-oxadiazol-3-ylmethoxy)benzyloxyimino]hexanoic acid]", "values": [{"measurement": "melting point", "result": "88 to 89", "unit": "°C"}]}, {"smiles": "O=C(O)CCCC/C(=N\\OCc1ccc(OCc2nc(-c3ccccc3)no2)cc1)c1ccccc1", "note": "[Example 138, E-6-phenyl-6-[4-(3-phenyl-1,2,4-oxadiazol-5-ylmethoxy)benzyloxyimino]hexanoic acid]", "values": [{"measurement": "melting point", "result": "91 to 92", "unit": "°C"}]}, {"smiles": "Cc1oc(-c2ccccc2)nc1COc1ccc(CO/N=C(/CCC(N)=O)c2ccccc2)cc1", "note": "[Example 139, Z-4-[4-(5-methyl-2-phenyl-4-oxazolylmethoxy)benzyloxyimino]-4-phenylbutanamide]", "values": [{"measurement": "melting point", "result": "110 to 112", "unit": "°C"}]}, {"smiles": "Cc1oc(-c2ccccc2)nc1COc1ccc(CO/N=C(\\CCCC(C)(C)C(=O)O)c2ccccc2)cc1", "note": "[Example 141, E-2,2-dimethyl-6-[4-(5-methyl-2-phenyl-4-oxazolylmethoxy)benzyloxyimino]-6-phenylhexanoic acid]", "values": [{"measurement": "melting point", "result": "111 to 112", "unit": "°C"}]}, {"smiles": "Cc1oc(-c2ccccc2)nc1COc1ccc(CO/N=C(\\CCCCC(=O)NS(C)(=O)=O)c2ccccc2)cc1", "note": "[Example 142, E-N-methanesulfonyl-6-[4-(5-methyl-2-phenyl-4-oxazolylmethoxy)benzyloxyimino]-6-phenylhexanamide]", "values": [{"measurement": "melting point", "result": "130 to 132", "unit": "°C"}]}, {"smiles": "Cc1oc(-c2ccccc2)nc1COc1ccccc1CO/N=C(\\CCC(=O)O)c1ccccc1", "note": "[Example 144, E-4-[2-(5-methyl-2-phenyl-4-oxazolylmethoxy)benzyloxyimino]-4-phenylbutyric acid]", "values": [{"measurement": "melting point", "result": "116 to 117", "unit": "°C"}]}]}
